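The compound was tested at five concentrations on cells cultured in 96-well plates, with a 48-hour exposure period. GI50: concentration for 50% inhibition of growth.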 Activity calls are given as the source filed them. Rule as the data show it: active = GI50 up to about 1.1 µM and inactive = higher.
Tests used:
Assay in all cases: inhibition of tumour cell growth, NCI panel, 48 h
[1] = tested on: COLO 205
[2] = tested on: RXF 393
[3] = tested on: U-251
[4] = tested on: K562
[5] = tested on: SK-OV-3
[6] = tested on: HL-60
[7] = tested on: MOLT-4
[8] = tested on: SK-MEL-28
[9] = tested on: A498
[10] = tested on: SN12C
[11] = tested on: SF-295
[12] = tested on: OVCAR-3
[13] = tested on: HOP-18
[14] = tested on: HOP-62
[15] = tested on: HCT-116
[16] = tested on: BT-549
[17] = tested on: T47D
[18] = tested on: MCF7
[19] = tested on: Hs-578T
[20] = tested on: MDA-MB-435

| SMILES | GI50 [1] | GI50 [2] | GI50 [3] | GI50 [4] | GI50 [5] | GI50 [6] | GI50 [7] | GI50 [8] | GI50 [9] | GI50 [10] | GI50 [11] | GI50 [12] | GI50 [13] | GI50 [14] | GI50 [15] | GI50 [16] | GI50 [17] | GI50 [18] | GI50 [19] | GI50 [20] |
| --- | --- | --- | --- | --- | --- | --- | --- | --- | --- | --- | --- | --- | --- | --- | --- | --- | --- | --- | --- | --- |
| Cc1cc(Cl)ccc1NC(=O)CC1SC(N)=NC1=O (stereo not drawn) | > 100 µM (inactive) | > 100 µM (inactive) | > 100 µM (inactive) | > 100 µM (inactive) | > 100 µM (inactive) | > 100 µM (inactive) | > 100 µM (inactive) | > 100 µM (inactive) | 17.7 µM (inactive) | > 100 µM (inactive) | > 100 µM (inactive) | > 100 µM (inactive) | > 100 µM (inactive) | > 100 µM (inactive) | – | – | – | – | – | – |
| Nc1nc2ncn(CCO)c2c(=S)[nH]1 | > 100 µM (inactive) | > 100 µM (inactive) | > 100 µM (inactive) | > 100 µM (inactive) | > 100 µM (inactive) | > 100 µM (inactive) | – | > 100 µM (inactive) | > 100 µM (inactive) | > 100 µM (inactive) | > 100 µM (inactive) | > 100 µM (inactive) | > 100 µM (inactive) | > 100 µM (inactive) | > 100 µM (inactive) | – | – | – | – | – |
| CC(C)CC(=O)N1CCN(C(=O)CC(C)C)c2ccccc21 | > 100 µM (inactive) | > 100 µM (inactive) | > 100 µM (inactive) | > 100 µM (inactive) | > 100 µM (inactive) | > 100 µM (inactive) | > 100 µM (inactive) | > 100 µM (inactive) | > 100 µM (inactive) | – | > 100 µM (inactive) | > 100 µM (inactive) | 10.1 µM (inactive) | > 100 µM (inactive) | > 100 µM (inactive) | – | – | – | – | – |
| CC1=C2C(c3ccccc3)(c3ccccc3)C3C=CC2(C=N3)N(C(=O)NC2CCCCC2)C1=O (stereo not drawn) | 15.9 µM (inactive) | – | 16.6 µM (inactive) | 17.5 µM (inactive) | 28.7 µM (inactive) | 14.7 µM (inactive) | 17.4 µM (inactive) | 16.7 µM (inactive) | 17.5 µM (inactive) | 17.6 µM (inactive) | 16.9 µM (inactive) | 14.8 µM (inactive) | 18.7 µM (inactive) | 17.5 µM (inactive) | 16 µM (inactive) | – | – | – | – | – |
| CCNC1=Nc2ccc(Cl)cc2C(c2ccccc2)=NN1 | 16.3 µM (inactive) | 25.5 µM (inactive) | 20.5 µM (inactive) | 6.38 µM (inactive) | 37.1 µM (inactive) | 22.3 µM (inactive) | 25.2 µM (inactive) | 17.5 µM (inactive) | 29.9 µM (inactive) | 32.4 µM (inactive) | 19.2 µM (inactive) | 17.5 µM (inactive) | 62.2 µM (inactive) | 24.6 µM (inactive) | – | – | – | – | – | – |
| CSc1nc2c(c(O)c(C)c(=O)n2C2OC(COC(C)=O)C(OC(C)=O)C(OC(C)=O)C2OC(C)=O)c(=O)n1C (stereo not drawn) | > 100 µM (inactive) | > 100 µM (inactive) | > 100 µM (inactive) | > 100 µM (inactive) | > 100 µM (inactive) | > 100 µM (inactive) | – | > 100 µM (inactive) | > 100 µM (inactive) | > 100 µM (inactive) | > 100 µM (inactive) | > 100 µM (inactive) | > 100 µM (inactive) | > 100 µM (inactive) | > 100 µM (inactive) | – | – | – | – | – |
| C/C(CCn1[nH]c(=O)ccc1=O)=N\Nc1ccc([N+](=O)[O-])cc1[N+](=O)[O-] | – | > 100 µM (inactive) | – | 20.6 µM (inactive) | – | > 100 µM (inactive) | > 100 µM (inactive) | > 100 µM (inactive) | > 100 µM (inactive) | > 100 µM (inactive) | 20.5 µM (inactive) | > 100 µM (inactive) | > 100 µM (inactive) | > 100 µM (inactive) | > 100 µM (inactive) | – | – | – | – | – |
| Cc1ccc(C2=C(c3ccccc3)C(O)(c3ccccc3)C(c3ccccc3)=C2c2ccc(C)cc2)cc1 | – | > 100 µM (inactive) | 31.5 µM (inactive) | > 100 µM (inactive) | > 100 µM (inactive) | – | 7.93 µM (inactive) | > 100 µM (inactive) | > 100 µM (inactive) | > 100 µM (inactive) | 35.6 µM (inactive) | – | > 100 µM (inactive) | > 100 µM (inactive) | 29.9 µM (inactive) | – | – | – | – | – |
| ON=C1CCC(c2ccccc2)CC1 (stereo not drawn) | > 100 µM (inactive) | > 100 µM (inactive) | > 100 µM (inactive) | > 100 µM (inactive) | > 100 µM (inactive) | > 100 µM (inactive) | – | > 100 µM (inactive) | > 100 µM (inactive) | > 100 µM (inactive) | > 100 µM (inactive) | > 100 µM (inactive) | > 100 µM (inactive) | > 100 µM (inactive) | > 100 µM (inactive) | – | – | – | – | – |
| CN(C)c1n/c(=N/c2ncn[nH]2)ss1 | – | > 100 µM (inactive) | > 100 µM (inactive) | > 100 µM (inactive) | > 100 µM (inactive) | > 100 µM (inactive) | > 100 µM (inactive) | > 100 µM (inactive) | > 100 µM (inactive) | > 100 µM (inactive) | > 100 µM (inactive) | – | > 100 µM (inactive) | > 100 µM (inactive) | > 100 µM (inactive) | – | – | – | – | – |
| CC1(C)CC(N(C(=O)/C=C/c2ccc([N+](=O)[O-])o2)C2CCCCC2)CC(C)(C)N1 | – | – | 5.35 µM (inactive) | – | 28.6 µM (inactive) | 2.21 µM (inactive) | 3.96 µM (inactive) | 12.5 µM (inactive) | 16.2 µM (inactive) | 6.22 µM (inactive) | 13.5 µM (inactive) | 12.3 µM (inactive) | 22.8 µM (inactive) | 20 µM (inactive) | 3.18 µM (inactive) | – | – | – | – | – |
| O=C(O)COc1ccc(C(=O)/C(SS/C(C(=O)c2ccc(OCC(=O)O)c(Cl)c2Cl)=C2\C=C(c3ccc(Cl)cc3)SS2)=C2/C=C(c3ccc(Cl)cc3)SS2)c(Cl)c1Cl | 0.339 µM (active) | – | 4.2 µM (inactive) | 2.43 µM (inactive) | 56.1 µM (inactive) | 0.252 µM (active) | 3.58 µM (inactive) | 25.2 µM (inactive) | 31.1 µM (inactive) | 0.319 µM (active) | 18.2 µM (inactive) | 5.37 µM (inactive) | 7.73 µM (inactive) | 39.8 µM (inactive) | 9.08 µM (inactive) | – | – | – | – | – |
| CN(C)c1ccc(Cc2cc(C(C)(C)C)cc(C(C)(C)C)c2O)cc1 | – | 16.4 µM (inactive) | 15.2 µM (inactive) | 11.7 µM (inactive) | 29.3 µM (inactive) | 21 µM (inactive) | 14.5 µM (inactive) | 20.3 µM (inactive) | 18.2 µM (inactive) | 16.1 µM (inactive) | 18.9 µM (inactive) | – | 26 µM (inactive) | 20.9 µM (inactive) | 13.2 µM (inactive) | – | – | – | – | – |
| COC(=O)c1ccc(O)c2nc3c(C=O)c(O)cc(O)c3nc12 [LOMOFUNGIN] | 3.1 µM (inactive) | 7.18 µM (inactive) | 0.025 µM (active) | 0.0847 µM (active) | 2.96 µM (inactive) | 0.293 µM (active) | 0.225 µM (active) | 1.93 µM (inactive) | 1.22 µM (inactive) | 0.499 µM (active) | 0.0441 µM (active) | 4.65 µM (inactive) | – | 1.36 µM (inactive) | 0.0977 µM (active) | 0.614 µM (active) | 0.397 µM (active) | 0.369 µM (active) | 1.21 µM (inactive) | 0.935 µM (active) |

From ChEMBL document CHEMBL1201862, “PubChem BioAssay data set” (2004)
